Experimental data from PMC3902948 (Nucleic Acids Research, 2013).

Key:
Conditions in all cases: read-out: In absence of RNA / KM; no RNA; 100 mM NaCl, 10 mM Tris pH 7.5, 2 mM MgCl2
[1] = test system: Prp43-Ntr1(51–102)
[2] = test system: Prp43(1–745)-Ntr1(51–110)
[3] = test system: Prp43-Ntr1(51–99)
[4] = test system: Prp43-Ntr1(59–110)
[5] = test system: Prp43-Ntr1(62–110)
[6] = test system: Prp43-Ntr1(51–110)

Km [1]: 17.5 ± 2.43 µM
Km [2]: 28.3 ± 4.61 µM
Km [3]: 10.7 ± 1.38 µM
Km [4]: 8.77 ± 1.09 µM
Km [5]: 10.6 ± 2.18 µM
Km [6]: 39.5 ± 3.92 µM
Structure (SMILES): Nc1ncnc2c1ncn2[C@@H]1O[C@H](COP(=O)(O)OP(=O)(O)OP(=O)(O)O)[C@@H](O)[C@H]1O [ATP]
